Biological target: Hematopoietic prostaglandin D synthase (Homo sapiens, UniProt O60760)
Assay: Binding affinity to full length recombinant human N-terminal His6-tagged H-PGDS expressed in Escherichia coli BL21(DE3) by SPR analysis

Chain of Hematopoietic prostaglandin D synthase (O60760 whole entry): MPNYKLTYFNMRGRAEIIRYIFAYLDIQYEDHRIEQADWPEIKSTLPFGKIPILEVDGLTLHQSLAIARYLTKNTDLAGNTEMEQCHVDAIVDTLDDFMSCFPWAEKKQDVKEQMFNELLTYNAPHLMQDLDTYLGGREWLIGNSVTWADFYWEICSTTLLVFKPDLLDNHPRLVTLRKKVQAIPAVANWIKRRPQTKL

Kd [nM]	SMILES
0.37	O=C(Nc1ccc(N2CCC(C(=O)N3CCOCC3)CC2)cc1)c1cnc(Oc2ccccc2)nc1
0.14	O=C(Nc1ccc(N2CCCC2=O)cc1)c1cnc(-c2ccccn2)nc1

Source: ChEMBL document CHEMBL4229539, “Characterization of crystal water molecules in a high-affinity inhibitor and hematopoietic prostaglandin D synthase complex by interaction energy studies” (Bioorg Med Chem, 2018)
